Measured values as given in PubChem BioAssay (NCI).
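Cells were grown in 96-well plates and exposed to each compound for 48 hours at five concentrations; endpoints were interpolated linearly between bracketing concentrations, or set to the highest concentration if not reached. Abbreviation: GI50, concentration required for 50% inhibition of growth. TGI marks complete inhibition of growth.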

How the values were obtained:
Experiment in all cases: NCI anticancer screen, dose series, 48 h
SW-620 colon = system: SW-620 colon
NCI-H226 lung = system: NCI-H226 lung
M14 melanoma = system: M14 melanoma
HCT-15 colon = system: HCT-15 colon
LOX IMVI melanoma = system: LOX IMVI melanoma
SNB-75 CNS = system: SNB-75 CNS
SNB-19 CNS = system: SNB-19 CNS
U251 CNS = system: U251 CNS
EKVX NSCLC = system: EKVX NSCLC
MOLT-4 leukemia = system: MOLT-4 leukemia

| SMILES | GI50 (SW-620 colon) [µM] | TGI (SW-620 colon) [µM] | GI50 (NCI-H226 lung) [µM] | TGI (NCI-H226 lung) [µM] | GI50 (M14 melanoma) [µM] | TGI (M14 melanoma) [µM] | GI50 (HCT-15 colon) [µM] | TGI (HCT-15 colon) [µM] | GI50 (LOX IMVI melanoma) [µM] | TGI (LOX IMVI melanoma) [µM] | GI50 (SNB-75 CNS) [µM] | TGI (SNB-75 CNS) [µM] | GI50 (SNB-19 CNS) [µM] | TGI (SNB-19 CNS) [µM] | GI50 (U251 CNS) [µM] | TGI (U251 CNS) [µM] | GI50 (EKVX NSCLC) [µM] | TGI (EKVX NSCLC) [µM] | GI50 (MOLT-4 leukemia) [µM] | TGI (MOLT-4 leukemia) [µM] |
| --- | --- | --- | --- | --- | --- | --- | --- | --- | --- | --- | --- | --- | --- | --- | --- | --- | --- | --- | --- | --- |
| O=C1/C(=C/c2ccccc2Br)COc2ccc(O)c(O)c21 | 1.34 | 4.44 | 2.75 | 8.19 | 1.53 | 4.06 | 0.557 | 3.12 | 1.03 | 2.32 | 1.47 | 6.92 | 1.69 | 3.92 | 1.09 | 2.33 | 2.09 | 5.23 | 0.504 | 53.4 |
| CN(C1=NS(=O)(=O)N=C(N(C)c2ccccc2)O1)c1ccccc1 |  | 30.3 |  | 33.1 |  | 38.9 |  | 39.2 |  | 27.6 |  | 34.5 |  | 43.4 |  | 36.8 |  | 48.6 |  | > 100 |
| COc1cc(C)[nH]c(=O)c1CN1CCc2c(Cl)cc([C@H](OC)C3COC3)c(Cl)c2C1=O | > 100 | > 100 | > 100 | > 100 | > 100 | > 100 | > 100 | > 100 | > 100 | > 100 | > 100 | > 100 | > 100 | > 100 | > 100 | > 100 | > 100 | > 100 | > 100 | > 100 |
| COc1ccc(-c2nc(N)c3ncn(C4OC(CO)C(O)C4O)c3n2)cc1 (stereo not given) |  | > 100 |  | > 100 |  | > 100 |  | > 100 |  | > 100 |  | > 100 |  | > 100 |  | > 100 |  | > 100 |  | > 100 |
| CC(C)Cc1ccc(C(C)/C=C2\CCC(CN3CCCC3)C2=O)cc1 (stereo not given) |  | 29.7 |  | 33.1 |  | 29.6 |  | 13.3 |  | 8.49 |  | 30 |  | 26.4 |  | 17.9 |  | 33.3 |  | 9.64 |
| COc1cc([C@@H]2c3cc4c(cc3[C@@H](NCc3ccc(C#N)cc3)C3COC(=O)[C@@H]32)OCO4)cc(OC)c1O (stereo not given in full) |  | 3.44 |  | 2.26 |  | 6.55 |  | 3.01 |  | 4.36 |  | 3.25 |  | > 100 |  | 1.55 |  | 5.76 |  | 1.38 |
| CCCC1C(=O)C(CC)Cc2c(OC)ccc(OC)c21 (stereo not given) |  | > 100 |  | > 100 |  | > 100 |  | > 100 |  | > 100 |  | > 100 |  | > 100 |  | > 100 |  | > 100 |  | > 100 |
| c1ccc(/N=C2\c3ccccc3CN2c2ccccn2)nc1 |  | > 100 |  | > 100 |  | > 100 |  | > 100 |  | > 100 |  | > 100 |  | > 100 |  | > 100 |  | > 100 |  | > 100 |
| CCCCNC(=O)Oc1ccc2c(=O)c3sc4c(=O)c5ccccc5c(=O)c4c3c(=O)c2c1 | 0.409 | 1.58 | 1.12 | 2.47 | 0.0976 | 0.225 | 0.16 | 0.36 | 0.327 | 1.75 | 0.189 | 0.421 | 0.287 | 1.05 | 1.02 | 2.26 | 1.38 | 3.57 | 2.17 | 6.57 |
| O=C1/C=C/[C@@H](O)[C@@H]2C[C@@H](O)C[C@H]2/C=C/CCC[C@H](CO)O1 | 2.32 | 6.81 | 1.21 | 2.74 | 2.42 | > 100 | 3.62 | > 100 | 0.832 | 3.81 | 2.37 | > 100 | 3.09 | > 100 | 3.3 | > 100 | 3.11 | > 100 | 3.11 | > 100 |
| O=C(c1cc2c(C(F)(F)F)onc2c2ccccc12)C(F)(F)F |  | > 100 |  | 13.5 |  | > 58.6 |  | > 29 |  | 18.3 |  | 15.4 |  | > 27.9 |  | 4.76 |  | > 33.3 |  | > 56 |
| CC(=O)O[C@H]1CCC2[C@@H]3CCC4Nc5c(cnn5-c5ccccc5)C[C@]4(C)C3CC[C@@]21C (stereo not given in full) |  | 31.3 |  | 27.8 |  | 29.9 |  | 47.8 |  | 25.4 |  | 20.2 |  | 41.9 |  | 91.5 |  | 16.5 |  | 33.7 |
| CCC(O)(c1ccc(OC)cc1)C(c1ccc(OCc2ccccc2)cc1)c1ccc(OCc2ccccc2)cc1 (stereo not given) |  | > 100 |  | > 100 |  | > 100 |  | > 100 |  | > 100 |  | > 100 |  | > 100 |  | > 100 |  | > 100 |  | > 100 |
| COc1cccc(-c2nc(-c3ccc(NC(=O)c4ccccc4)cc3)[nH]c2-c2ccnc(Br)c2)c1 | 3.77 | > 100 | 2.95 | > 100 | 2.91 | > 100 | 0.78 | 3.28 | 1.13 | 2.69 | 0.815 | > 100 | 3.87 | > 100 | 2.1 | > 100 | 2.18 | 9.47 | 2.7 | > 100 |
| COc1cc2ccc(/C(C)=N/OC(C)=O)cc2cc1OC |  | > 100 |  | > 100 |  | > 100 |  | > 100 |  | > 100 |  | 40.9 |  | > 100 |  | > 100 |  | > 100 |  | > 100 |
| O=C(CN1CCOCC1)CC(O)(C(F)(F)F)C(F)(F)F |  | > 100 |  | > 100 |  | > 100 |  | > 100 |  | > 100 |  | > 100 |  | > 100 |  | > 100 |  | > 100 |  | > 100 |
| NC1=NC(c2ccccc2)CC(c2cc(Cl)cc(Br)c2O)=N1 (stereo not given) |  | 26.2 |  | 34.3 |  | 28.7 |  | 31.1 |  | 27.7 |  | 28.3 |  | 33.3 |  | 26.4 |  | 28.2 |  | 11.6 |
| CC(=O)NNC(=S)/N=C/c1c(O)cc(C)oc1=O |  | > 100 |  | > 100 |  | > 100 |  | > 100 |  | > 100 |  | > 100 |  | > 100 |  | > 100 |  | > 100 |  | > 100 |
| N#C/C(=C/C=C/c1ccccc1)S(=O)c1ccccc1 (stereo not given) | 0.337 | 1.13 | 1.92 | 5.88 | 0.655 | 2.7 | 0.211 | 0.638 | 0.163 | 0.337 | 0.904 | 3.01 | 0.638 | 2.58 | 0.483 | 1.7 | 0.899 | 2.46 | 0.338 | 3.64 |
| C/C(=N\NS(=O)(=O)c1ccc(C)cc1)c1c(O)cc(C)oc1=O |  | > 100 |  | > 100 |  | > 100 |  | > 100 |  | > 100 |  | > 100 |  | > 100 |  | > 100 |  | > 100 |  | > 100 |
| Cc1ccc(C(=O)CCC2C(=O)CC(C)(C)CC2=O)cc1 |  | > 100 |  | > 100 |  | > 100 |  | > 100 |  | > 100 |  | > 100 |  | > 100 |  | > 100 |  | > 100 |  | > 100 |
| COc1c(B(O)O)cccc1-c1nc2c(F)cc3[nH]ncc3c2c2c1CCCC2 | 0.604 | 14.4 | 1.44 | 22.7 | 3.8 | 15.5 | 2.24 | 27.6 | 0.865 | 5.62 | 0.0246 | 0.498 | 1.66 | 37.9 | 1.77 | > 44.9 | 2.61 | 34.3 | 0.844 | > 100 |
| CCN(CC)CCOC(=O)/C(=C/c1ccc(OC)cc1)c1cc(OC)c(OC)c(OC)c1 |  | > 100 |  | 54.5 |  | 19.9 |  | > 100 |  | 18.6 |  | 11.6 |  | 80.6 |  | 25.5 |  | > 100 |  | > 100 |
| CC(C)c1cccc(C(C)C)c1N=C(N)C#N |  | 58.5 |  | > 100 |  | > 100 |  | > 58.2 |  | > 56.2 |  | > 100 |  | > 100 |  | > 93.2 |  | > 100 |  | > 66 |
| CCN(CC)C(=O)CNC(=O)OC(C)(C)C |  | > 100 |  | > 100 |  | > 100 |  | > 100 |  | > 100 |  | > 100 |  | > 100 |  | > 100 |  | > 100 |  | > 100 |
